Results from patent publication US6911537B2, “Xenobiotic compound modulated expression systems and uses therefor” (The Salk Institute for Biological Studies, priority 1998, dated 2005).
Entries after “also recorded” stand apart in the source; their conditions may differ. Like-named read-outs stand apart in the source and are kept apart here.

Experiments:
endogenous PXR = target: T1, endogenous PXR (Rattus norvegicus, UniProt Q9R1A7); settings: hepatocytes
T1 sequence (Q9R1A7 1-431): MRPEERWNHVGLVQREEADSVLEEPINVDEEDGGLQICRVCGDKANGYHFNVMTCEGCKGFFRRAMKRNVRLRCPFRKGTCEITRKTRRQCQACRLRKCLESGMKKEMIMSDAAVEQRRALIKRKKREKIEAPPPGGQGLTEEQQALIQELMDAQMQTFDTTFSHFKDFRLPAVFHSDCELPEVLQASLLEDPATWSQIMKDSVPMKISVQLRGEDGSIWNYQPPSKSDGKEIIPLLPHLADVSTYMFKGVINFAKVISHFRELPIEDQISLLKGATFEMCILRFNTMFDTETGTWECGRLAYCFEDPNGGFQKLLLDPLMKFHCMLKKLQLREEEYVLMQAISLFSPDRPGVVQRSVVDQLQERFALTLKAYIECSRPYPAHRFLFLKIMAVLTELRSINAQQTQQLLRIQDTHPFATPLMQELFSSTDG
Method: (§1) The PCR-amplified sequences and target mutagenesis were confirmed by DNA sequencing.
(§2) All compounds were purchased from Sigma.
(§3) A panel of natural and synthetic steroid and nonsteroid compounds were tested for their ability to activate SXR and/or PXR in transfection-based assays using primary rat hepatocytes as recipient cells and the cellular promoters of the rat CYP3A23 gene or the human CYP3A4 gene as reporters.

SXR [1] = target: T2, SXR (Homo sapiens, UniProt O75469)
T2 sequence (O75469 1-434): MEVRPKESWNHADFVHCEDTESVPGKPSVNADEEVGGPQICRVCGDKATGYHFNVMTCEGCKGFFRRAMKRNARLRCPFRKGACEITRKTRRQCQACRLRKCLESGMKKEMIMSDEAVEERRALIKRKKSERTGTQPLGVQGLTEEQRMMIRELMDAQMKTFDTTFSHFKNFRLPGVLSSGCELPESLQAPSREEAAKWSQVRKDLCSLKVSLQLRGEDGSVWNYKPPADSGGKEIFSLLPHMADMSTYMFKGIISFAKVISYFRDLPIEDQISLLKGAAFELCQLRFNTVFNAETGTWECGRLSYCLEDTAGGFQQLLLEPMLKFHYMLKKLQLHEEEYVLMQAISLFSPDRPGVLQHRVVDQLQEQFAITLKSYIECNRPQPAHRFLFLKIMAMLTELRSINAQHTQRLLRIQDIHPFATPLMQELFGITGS
Method: as §1, §2, §3

SXR [2] = target: T3, SXR (Homo sapiens, UniProt O75469); test: Transfection-based reporter assay in CV-1 cells, GAL4-SXR or full-length SXR; set-up: Activation of SXR response elements (DR-3, DR-4, DR-5) by full-length SXR: dose or concentration left out as unconfirmed; settings: for Activation of human SXR by compounds known to induce CYP3A4: 50 μM, tamoxifen 5 μM (FIG. 7A); for Activation of SXR in transfection-based assays: GAL4-SXR LBD chimera or full-length SXR, CV-1 cells, steroids at high doses, up to 50 mM [sic]; for Activation of SXR response elements (DR-3, DR-4, DR-5) by full-length SXR: cotransfection, panel of steroids as printed (FIG. 4)
T3 sequence (O75469 1-434): T2 sequence (O75469 1-434)
T3 sequence (P19793 1-462 partner): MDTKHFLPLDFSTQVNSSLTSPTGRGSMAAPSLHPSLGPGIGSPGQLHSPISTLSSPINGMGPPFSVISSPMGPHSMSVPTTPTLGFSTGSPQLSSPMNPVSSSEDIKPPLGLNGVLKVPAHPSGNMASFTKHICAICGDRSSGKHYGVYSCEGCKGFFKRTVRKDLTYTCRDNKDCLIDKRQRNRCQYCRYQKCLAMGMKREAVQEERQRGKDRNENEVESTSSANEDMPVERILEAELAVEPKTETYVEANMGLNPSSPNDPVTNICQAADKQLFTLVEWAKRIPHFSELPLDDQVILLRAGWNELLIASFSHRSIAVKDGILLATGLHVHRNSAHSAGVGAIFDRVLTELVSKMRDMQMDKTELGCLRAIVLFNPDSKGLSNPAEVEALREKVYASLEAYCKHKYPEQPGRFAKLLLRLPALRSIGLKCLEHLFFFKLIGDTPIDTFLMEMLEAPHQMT
From the text: (§4) Thus, the protein coding region of SXR was PCR amplified and subcloned into NcoI and BamH1 sites of the vector pCDG1 (see Blumberg et al., supra). During this process the putative initiator Leu was converted to Met with a Kozak consensus sequence CCATGG.

SXR [3] = target: T3, SXR; remark: listed apart in the source
From the text: as §4

Cc1ccc2cc3c(ccc4ccccc43)c3c2c1CC3 [3MC, 3-methylcholanthrene]
Activation of CYP3A23 promoter reporter in the absence of SXR (endogenous PXR): fail to activate or behave as poor activators

CCCCC/C=C/C=C1/C(=O)C=C[C@@H]1C/C=C\CCCC(=O)O [15d-PGJ2]
Activation of CYP3A23 promoter reporter by PPARγ ligands in the presence of SXR (SXR [1]): fail to activate

CC/C(=C(/CC)c1ccc(O)cc1)c1ccc(O)cc1 [DES, diethylstilbestrol]
Activation of human SXR by compounds known to induce CYP3A4 (SXR [2]): most potent activators

C[C@]12CCC(=O)C=C1CC[C@@H]1[C@@H]2[C@@H](O)C[C@]2(C=O)[C@@H](C(=O)CO)CC[C@@H]12 [aldosterone]
Activation of SXR in transfection-based assays (SXR [2]): inactive | Activation of SXR response elements (DR-3, DR-4, DR-5) by full-length SXR (SXR [2]): little response

C[C@]12C[C@H](O)[C@H]3[C@@H](CCC4=CC(=O)CC[C@@]43C)[C@@H]1CC[C@@H]2C(=O)CO [corticosterone]
Activation of human SXR by compounds known to induce CYP3A4 (SXR [2]): most potent activators | Activation of SXR in transfection-based assays (SXR [2]): most potent and efficacious activator; also recorded: activated | Activation of SXR response elements (DR-3, DR-4, DR-5) by full-length SXR (SXR [2]): among the best activators

C[C@]12CCC(=O)C=C1CC[C@@H]1[C@@H]2[C@@H](O)C[C@@]2(C)[C@H]1CC[C@]2(O)C(=O)CO [cortisol]
Activation of SXR response elements (DR-3, DR-4, DR-5) by full-length SXR (SXR [2]): little response

C[C@]12CCC(=O)C=C1CC[C@@H]1[C@@H]2C(=O)C[C@@]2(C)[C@H]1CC[C@]2(O)C(=O)CO [cortisone]
Activation of SXR response elements (DR-3, DR-4, DR-5) by full-length SXR (SXR [2]): intermediate activators; also recorded: intermediate group

O=c1oc2cc(O)ccc2c2oc3cc(O)ccc3c12 [coumestrol]
Activation of human SXR by compounds known to induce CYP3A4 (SXR [2]): most potent activators

C[C@]12CCC(=O)C[C@@H]1CC[C@@H]1[C@@H]2CC[C@]2(C)[C@@H](O)CC[C@@H]12 [dihydrotestosterone]
Activation of SXR in transfection-based assays (SXR [3]): remarkably effective activators | Activation of SXR response elements (DR-3, DR-4, DR-5) by full-length SXR (SXR [3]): among the best activators | Activation of human SXR by compounds known to induce CYP3A4 (SXR [3]): activate

Oc1ccc([C@H]2COc3cc(O)ccc3C2)cc1 [equol]
Activation of human SXR by compounds known to induce CYP3A4 (SXR [2]): activate

O=c1c(-c2ccc(O)cc2)coc2cc(O)cc(O)c12 [genistein]
Activation of human SXR by compounds known to induce CYP3A4 (SXR [2]): activate

CCC1(c2ccccc2)C(=O)NC(=O)NC1=O [phenobarbital]
Induction of CYP3A23 promoter reporter with co-transfection of SXR (SXR [1]): significant induction | Activation of CYP3A23 promoter reporter in the absence of SXR (endogenous PXR): fail to activate or behave as poor activators

CC(=O)[C@H]1CC[C@H]2[C@@H]3CC=C4C[C@@H](O)CC[C@]4(C)[C@H]3CC[C@]12C [pregnenolone]
Induction of CYP3A23 promoter reporter with co-transfection of SXR (SXR [1]): significant induction | Activation of CYP3A23 promoter reporter in the absence of SXR (endogenous PXR): fail to activate or behave as poor activators | Activation of SXR response elements (DR-3, DR-4, DR-5) by full-length SXR (SXR [2]): among the best activators

CC(=O)[C@H]1CC[C@H]2[C@@H]3CCC4=CC(=O)CC[C@]4(C)[C@H]3CC[C@]12C [progesterone]
Activation of CYP3A23 promoter reporter in the absence of SXR (endogenous PXR): fail to activate or behave as poor activators

CC(=O)S[C@@H]1CC2=CC(=O)CC[C@]2(C)[C@H]2CC[C@@]3(C)[C@@H](CC[C@@]34CCC(=O)O4)[C@H]12 [spironolactone]
Activation of human SXR by compounds known to induce CYP3A4 (SXR [3]): activate

estrogen
Activation of SXR in transfection-based assays (SXR [2]): activated
